In patent publication US10287267B2, “Isoquinolin-3-yl carboxamides and preparation and use thereof” (Samumed, LLC, priority 2016, dated 2019):

Assays:
[1] = test system: Wnt pathway (Sp5-Luc reporter, TCF/LEF binding sites) in SW480 colon carcinoma cells; assay: Screening assay for Wnt activity: Sp5-Luc reporter gene assay; type: cell-based, human; conditions: Homo sapiens; for EC50: Sp5-Luc reporter, SW480 cells, 36 to 48 hours; for inhibition at 10 µM: SW480, read-out: percent inhibition at 10 μM;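 as to all read-outs here: firefly luciferase luminescence read in stably transduced SW480 cells carrying the Sp5 promoter reporter with eight TCF/LEF sites, compounds given in 0.1% DMSO final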
Method: The screening assay for Wnt activity is described as follows.
Following incubation, 15 μl of BriteLite Plus luminescence reagent (Perkin Elmer) was added to each well of the 384-well assay plates. The plates were placed on an orbital shaker for 2 min and then luminescence was quantified using the Envision (Perkin Elmer) plate reader.

IL-6 = IL-6 inhibition in LPS-stimulated human peripheral blood mononuclear cells (HTRF); type: cell-based; conditions: Homo sapiens, PBMC; for EC50: Table 9, huPBMCs, LPS 50 ng/mL, 22 hours, dose-response starting from 10 μM; for inhibition at 10 µM: read-out: percent value in parentheses beside EC50 >10 μM;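 as to all read-outs here: IL-6 detected by HTRF with an XL665- and Cryptate-labelled anti-IL-6 antibody pair, samples run in duplicate, EC50 obtained from a four-parameter Levenberg-Marquardt curve fit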
Method: After 22 hour incubation, a mixture of anti-IL6 XL665 and anti-IL-6 Cryptate diluted in reconstitution buffer (Catalog #62IL6PEC, Cisbio Inc., Bedford, Mass.) was added to each well. […] All samples were processed in duplicate. […] EC50 was determined using software generated by Dotmatics Limited (Windhill Bishops Stortford Herts, UK) using the Levenberg-Marquardt 4 parameter fitting procedure with finite different gradients.

[2] = target: recombinant DYRK1A kinase (Homo sapiens (Human), UniProt Q13627); assay: DYRK1A kinase assay (Ser/Thr 18 peptide Z-lyte FRET); type: biochemical; conditions: 30 μM ATP, 1 h room temperature;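 also: Read-out is the coumarin to fluorescein emission ratio, referenced to unphosphorylated (0%) and phosphorylated (100%) Ser/Thr 18 peptide controls, values from dose-response curves by non-linear regression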
[3] = test system: α-smooth muscle actin (αSMA) positive LL29 cells; assay: Inhibition of fibrotic process: αSMA in TGF-β1 treated primary human fibroblasts from IPF patients; type: cell-based; conditions: Homo sapiens, Fibroblast; for EC50: 96 h, Table 8, LL29 fibroblasts from IPF patients, TGF-β1 20 ng/mL, 4 days, dose-response 10 μM to 0.94 nM; for inhibition at 10 µM: read-out: percent value in parentheses beside EC50 >10 μM;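 as to all read-outs here: controls were TGF-β1 stimulated wells with DMSO vehicle (positive) and cells given DMSO alone (negative), cultured in F12 medium with 1% fetal bovine serum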
[4] = test system: Tau phosphorylation at Ser396 (pSer396); assay: Tau phosphorylation assay (pSer396 ELISA / western blot) in SH-SY5Y cells; type: cell-based, human; conditions: Homo sapiens; SH-SY5Y cells, overnight (16-18 h) exposure; read-out: pSer396 Tau EC50;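 also: EC50 for reduction of Tau pSer396 in lysed cells, measured by colorimetric ELISA or chemiluminescent western blot, both using the same pSer396 antibody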
Method: Two days before treatment, cells were seeded onto 96 well plates at 5×10^4 cells/well.
Wells were visually checked for cell death or change in morphology and supernatants were tested for cytotoxicity by measurement of lactate dehydrogenase release (LDH, CytoToxOne kit, Promega) if necessary.
Cells were lysed with RIPA buffer complemented with phosphatase and protease inhibitors then lysates were spun down at 12,000 g for 10 min to remove any cellular debris. Lysates are then either directly tested for pSer396 by ELISA (Life Technology, Kit KHB7031) or loaded on NuPage Bis-Tris gels for western blot analysis. Colorimetric detection of ELISA signal is performed by Cytation3 plate reader (Biotek) and the chemiluminescence signal for HRP-linked antibodies used in western blotting is detected using a Carestream Image Station. The same pSer396 antibody is used for detection of pTau in both assays.

recombinant GSK3β kinase = recombinant GSK3β kinase (Homo sapiens (Human), UniProt P49841); assay: GSK3β kinase assay (Ser/Thr 09 peptide Z-lyte FRET); type: biochemical; conditions: 46 μM ATP, 1 h room temperature;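 also: kinase activity read as coumarin to fluorescein emission ratio, 11-point threefold dilutions from 10 µM to 0.0003 µM in duplicate, unphosphorylated and phosphorylated peptide as 0% and 100% controls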
Sequence of recombinant GSK3β kinase (P49841 whole entry): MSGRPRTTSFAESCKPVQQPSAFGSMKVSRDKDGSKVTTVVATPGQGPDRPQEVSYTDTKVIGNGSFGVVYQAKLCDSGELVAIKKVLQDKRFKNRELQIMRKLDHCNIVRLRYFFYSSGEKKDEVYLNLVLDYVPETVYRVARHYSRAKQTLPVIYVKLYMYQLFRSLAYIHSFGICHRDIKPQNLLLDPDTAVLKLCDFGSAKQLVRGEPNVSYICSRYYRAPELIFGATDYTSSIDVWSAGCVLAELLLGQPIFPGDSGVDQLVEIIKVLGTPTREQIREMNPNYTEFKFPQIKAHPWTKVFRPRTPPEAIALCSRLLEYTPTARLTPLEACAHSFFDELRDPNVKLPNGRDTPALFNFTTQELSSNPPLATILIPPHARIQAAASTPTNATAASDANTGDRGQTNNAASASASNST

[5] = test system: SW480 colon carcinoma cells; assay: Cell viability assay (CellTiter-Glo); type: cell-based, human; conditions: Homo sapiens; for EC50: 96 h, SW480 cells, CellTiter-Glo, four days incubation; for inhibition at 10 µM: SW480, read-out: percent inhibition at 10 μM

SMILES	EC50 [1] [µM]	EC50 (IL-6) [nM]	EC50 [2] [nM]	EC50 [3] [nM]	EC50 [4] [nM]	EC50 (recombinant GSK3β kinase) [nM]	EC50 [5] [µM]	inhibition at 10 µM [1] [%]	inhibition at 10 µM [3] [%]	inhibition at 10 µM [5] [%]	inhibition at 10 µM (IL-6) [%]
Cn1cc(-c2ccc3cnc(NC(=O)C4CCN(Cc5ccccn5)CC4)cc3c2)cn1 [Compound 359, N-(6-(1-Methyl-1H-pyrazol-4-yl)isoquinolin-3-yl)-1-(pyridin-2-ylmethyl) piperidine-4-carboxamide]	0.669	1030	3	127	521	82	0.261	–	–	–	–
Cn1cncc1-c1ccc2cnc(NC(=O)C(C)(C)F)cc2c1 [Compound 517, 2-Fluoro-2-methyl-N-(6-(1-methyl-1H-imidazol-5-yl)isoquinolin-3-yl) propanamide]	> 10	9070	9.6	> 10000	1300	470	> 10	35.8	29.9	27.5	–
Cn1cc(-c2ccc3cnc(NC(=O)CN4CCC5(CC4)CC5)cc3c2)cn1 [Compound 296, N-(6-(1-Methyl-1H-pyrazol-4-yl)isoquinolin-3-yl)-2-(6-azaspiro[2.5]octan-6-yl)acetamide]	3.48	1580	14.3	1960	978	80	3.46	–	–	–	–
CC(C)OCCC(=O)Nc1cc2cc(-c3cncn3C)ccc2cn1 [Compound 1009, 3-Isopropoxy-N-(6-(1-methyl-1H-imidazol-5-yl)isoquinolin-3-yl) propanamide]	1.11	1840	6.2	> 10000	68	15	2.35	–	22.4	–	–
CN(CC(=O)Nc1cc2cc(-c3cnn(C)c3)ccc2cn1)C1CCC1 [Compound 302, 2-(Cyclobutyl(methyl)amino)-N-(6-(1-methyl-1H-pyrazol-4-yl)isoquinolin-3-yl)acetamide]	3.65	7700	7.7	901	628	38	> 10	–	–	34.9	–
CC(C)CN1CCC(F)(C(=O)Nc2cc3cc(-c4cnn(C)c4)ccc3cn2)CC1 [Compound 96, 4-Fluoro-1-isobutyl-N-(6-(1-methyl-1H-pyrazol-4-yl)isoquinolin-3-yl) piperidine-4-carboxamide]	> 10	> 10000	7.1	677	2000	350	> 10	–	–	–	5.8
CN1CCC(N2CCC(C(=O)Nc3cc4cc(-c5cncs5)ccc4cn3)CC2)CC1 [Compound 743, 1′-Methyl-N-(6-(thiazol-5-yl)isoquinolin-3-yl)-[1,4′-bipiperidine]-4-carboxamide]	9.49	1130	1.3	447	432	63	1.54	–	–	–	–
O=C(Nc1cc2cc(-c3cnn4c3CN(CCF)CC4)ccc2cn1)C1CCC(F)(F)CC1 [Compound 283, 4,4-Difluoro-N-(6-(5-(2-fluoroethyl)-4,5,6,7-tetrahydropyrazolo[1,5-a]pyrazin-3-yl)isoquinolin-3-yl)cyclohexane-1-carboxamide]	2.49	5450	7	782	411	62	3.12	–	–	–	–
CC(C)OCCN1CCC(C(=O)Nc2cc3cc(-c4cnn(C)c4)ccc3cn2)CC1 [Compound 90, 1-(2-Isopropoxyethyl)-N-(6-(1-methyl-1H-pyrazol-4-yl)isoquinolin-3-yl) piperidine-4-carboxamide]	1.1	1080	3	96	302	42	1.17	–	–	–	–
Cn1nccc1-c1ccc2cnc(NC(=O)C3CCN(CCC(F)(F)F)CC3)cc2c1 [Compound 270, N-(6-(1-Methyl-1H-pyrazol-5-yl)isoquinolin-3-yl)-1-(3,3,3-trifluoropropyl) piperidine-4-carboxamide]	> 10	9980	952	> 10000	> 10000	5310	> 10	–	11.4	–	–
Cn1cc(-c2cc3cc(NC(=O)C4CCNCC4)ncc3cc2Cl)cn1 [Compound 1013, N-(7-Chloro-6-(1-methyl-1H-pyrazol-4-yl)isoquinolin-3-yl)piperidine-4-carboxamide]	> 10	6820	17.1	2440	4200	1430	5.5	42.9	–	–	–
Cn1cc(-c2ccc3cnc(NC(=O)[C@H]4CC[C@H](CO)CC4)cc3c2)cn1 [Compound 333, trans-4-(Hydroxymethyl)-N-(6-(1-methyl-1H-pyrazol-4-yl)isoquinolin-3-yl)cyclohexane-1-carboxamide]	0.384	790	1.2	61	1100	60	0.641	–	–	–	–
O=C(Nc1cc2cc(-c3cncs3)ccc2cn1)C1(F)CCCCC1 [Compound 704, 1-Fluoro-N-(6-(thiazol-5-yl)isoquinolin-3-yl)cyclohexane-1-carboxamide]	> 10	> 10000	8.2	4380	10000	1830	> 10	10.2	–	18.1	4.8
CN1CCN(CC(=O)Nc2cc3cc(-c4cnn(C)c4)cc(F)c3cn2)CC1 [Compound 968, N-(8-Fluoro-6-(1-methyl-1H-pyrazol-4-yl)isoquinolin-3-yl)-2-(4-methylpiperazin-1-yl)acetamide]	> 10	9240	31.4	> 10000	2700	61	> 10	38	24.1	14.5	–
CC(C)CN1CCC(F)(C(=O)Nc2cc3cc(-c4cn(C)nn4)ccc3cn2)CC1 [Compound 281, 4-Fluoro-1-isobutyl-N-(6-(1-methyl-1H-1,2,3-triazol-4-yl)isoquinolin-3-yl) piperidine-4-carboxamide]	> 10	> 10000	8.1	486	518	71	> 10	47	–	–	0
CC(C)CN1CCC[C@H](C(=O)Nc2cc3cc(-c4cnn(C)c4)ccc3cn2)C1 [Compound 112, (S)-1-Isobutyl-N-(6-(1-methyl-1H-pyrazol-4-yl)isoquinolin-3-yl)piperidine-3-carboxamide]	3.2	2990	20.6	546	1750	292	6.42	–	–	–	–
Cn1ncc(-c2ccc3cnc(NC(=O)C4CC5(C4)CN(C(=O)OC(C)(C)C)C5)cc3c2)c1CN1CCCCC1 [Compound 992, tert-Butyl 6-((6-(1-methyl-5-(piperidin-1-ylmethyl)-1H-pyrazol-4-yl)isoquinolin-3-yl)carbamoyl)-2-azaspiro[3.3]heptane-2-carboxylate]	3.21	> 10000	25.3	2970	350	14	5.6	–	–	–	2.6
Cn1cc(-c2ccc3cnc(NC(=O)[C@H]4CCCN4)cc3c2)cn1 [Compound 320, (R)—N-(6-(1-Methyl-1H-pyrazol-4-yl)isoquinolin-3-yl)pyrrolidine-2-carboxamide]	1.14	1260	9.9	69	280	10	1.78	–	–	–	–
Cn1cc(-c2ccc3cnc(NC(=O)C4(F)CCNCC4)cc3c2)cn1 [Compound 91, 4-Fluoro-N-(6-(1-methyl-1H-pyrazol-4-yl)isoquinolin-3-yl)piperidine-4-carboxamide]	> 10	> 10000	10.5	> 10000	4700	838	9.59	–	17.3	–	40
Cn1cc(-c2ccc3cnc(NC(=O)C4CCN(C5CCOCC5)CC4)cc3c2)cn1 [Compound 332, N-(6-(1-Methyl-1H-pyrazol-4-yl)isoquinolin-3-yl)-1-(tetrahydro-2H-pyran-4-yl)piperidine-4-carboxamide]	0.662	1070	3.5	291	249	39	1	–	–	–	–
